Ends that are not written are not given here.
Assays:
Assay type in all cases: cell-based
[1] = test system: astrocytes derived from rat brain cerebral cortex (R-CxAs-520); experiment: Nestin expression inducing activity, nestin gene expression by qRT-PCR, astrocytes derived from the cerebral cortex; conditions: corrected with Actin β, peptide 10 μM, 2 days, FIG. 3
Protocol: (§1) Among the synthetic peptides obtained in Example 1, sample 1 (i.e. the nestin-inducing synthetic peptide of the present invention) was evaluated for nestin expression inducing activity by quantifying the expression level of the nestin gene. Cells used for the test were cultured cells of astrocytes derived from rat brain cerebral cortex (R-CxAs-520: available from Lonza). The evaluation test is detailed as follows.
The astrocytes derived from rat cerebral cortex were inoculated into a 6-well cell culture plate at a density of 1.0×10^5 cells/well. The cells were incubated in the AG medium overnight in a CO2 incubator at 37° C. and 5% CO2.
After the overnight incubation, the medium was replaced with an AG medium containing the peptide of sample 1 at the amount of 10 μM, and the incubation was continued under the same condition for 2 more days. A comparative example was carried out without addition of the peptide.
After the incubation was completed, total RNA was extracted from cultured cells from each experimental sample in the same manner as in Example 2. […]
The expression level of the nestin gene in each experimental sample was corrected with the expression level of Actin β in each experimental sample. The expression level of each gene is expressed as a value relative to the expression level of the gene in the sample without addition of the peptide being regarded as 1.

[2] = test system: astrocytes derived from rat brain hippocampus (R-HiAs-521); experiment: Nestin expression inducing activity, nestin gene expression by qRT-PCR, astrocytes derived from the hippocampus; conditions: corrected with Actin β, peptide 5 μM, 2 days, FIG. 1
Protocol: as §1, with “hippocampus (R-HiAs-521:” for “cerebral cortex (R-CxAs-520:”
The astrocytes derived from rat brain hippocampus were inoculated into a 6-well cell culture plate at a density of 1.0×10^5 cells/well. […]
After the incubation was completed, cultured cells from each experimental sample were washed with Cold PBS (−), and total RNA was extracted and purified using a commercially available RNA extraction and purification kit (NUCLEOSPIN™ RNA/Protein kit: available from Macherey Nagel). […] The purified RNA was quantified using Agilent 2100 Bioanalyzer (available from Agilent Technologies).
The purified RNA was subjected to qRT-PCR to examine the expression level of the nestin gene. […] RT-PCR employed the two-step RT-PCR method and quantitative PCR employed the TAQMAN® method. […]
The cDNA obtained in RT-PCR was then used as a template for quantitative PCR. […] Quantitative PCR reaction was carried out under the conditions of incubation at 95° C. for 10 seconds followed by 45 cycles of 95° C. for 15 seconds, 62° C. for 20 seconds and 72° C. for 20 seconds. […]

[3] = test system: astrocytes derived from rat cerebral cortex (R-CxAs-520); experiment: Nestin expression inducing activity, western blot analysis of nestin and GFAP, astrocytes derived from the cerebral cortex; conditions: peptide 5 μM, 2 days; for expression of GFAP compared to the culture without addition of the peptide: anti-GFAP antibody; for expression of nestin compared to the culture without addition of the peptide: anti-nestin antibody, FIG. 4
Protocol: (§2) Among the synthetic peptides obtained in Example 1, samples 1 to 3 were evaluated for nestin expression inducing activity by western blot analysis using an anti-nestin antibody. Cells used for the test were cultured cells of astrocytes derived from rat cerebral cortex (R-CxAs-520: available from Lonza). A comparative example was carried out without addition of the peptide. The evaluation test is detailed as follows.
In the same manner as in Example 4, the astrocytes derived from rat cerebral cortex were incubated in the presence of the peptide at a peptide concentration of 5 μM for 2 days. After the incubation was completed, total protein was extracted from cultured cells from each experimental sample in the same manner as in Example 3.
SDS-PAGE and western blot analysis were then carried out in the same manner as in Example 3 to examine expression of nestin and GFAP in each experimental sample. An internal standard used in the series of procedures was the GAPDH protein.
Lanes 1, 2, 3 and 4 are the results without addition of the peptide, with addition of sample 2, with addition of sample 3 and with addition of sample 1, respectively.

[4] = test system: astrocytes derived from rat brain hippocampus (R-HiAs-521); experiment: Nestin expression inducing activity, western blot analysis of nestin and GFAP, astrocytes derived from the hippocampus; conditions: peptide 5 μM, 3 days
Protocol: as §2, with “sample” for “samples”, “(i.e. the nestin-inducing synthetic peptide of the present invention) was” for “to 3 were”, “brain hippocampus (R-HiAs-521:” for “cerebral cortex (R-CxAs-520:”
In the same manner as in Example 2, the astrocytes derived from rat brain hippocampus were incubated in the presence of the peptide at a peptide concentration of 5 μM for 3 days. After the incubation was completed, cultured cells from each experimental sample were washed with Cold PBS (−), and total protein was extracted using a commercially available protein extraction and purification kit (NucleoSpin™ RNA/Protein kit: available from Macherey Nagel). All procedures were carried out in the absence of proteases according to the instruction attached to the kit. The concentration of the extracted protein was quantified using RC DC Protein assay (available from BIO RAD).
According to the SDS (sodium dodecyl sulphate)-polyacrylamide electrophoresis (SDS-PAGE) and western blot analysis as described below, expression of nestin and GFAP in each experimental sample was examined. An internal standard used in the series of procedures was the GAPDH protein.
Specifically, proteins obtained from each experimental sample and a molecular weight marker (MagicMark™ XP Western Protein Standard: available from Life Technologies) were injected to a well of an SDS-polyacrylamide gel (precast gel for electrophoresis: available from Oriental Instruments Co., Ltd.) and SDS-PAGE was carried out. Electrophoresis of nestin was carried out on a 7.5% SDS-polyacrylamide gel and electrophoresis of GFAP and the GAPDH protein was carried out on a 5-20% SDS-polyacrylamide gel.
The proteins separated by SDS-PAGE were transferred (blotting) onto a PVDF (polyvinylidene difluoride) membrane which was then blocked in Perfect-Block (available from MoBiTec) diluted to 5% in PBS (−) containing Tween 20™ (hereinafter referred to as PBST (−)).
Nestin, GFAP and the GAPDH protein were detected with primary antibodies, an anti-nestin antibody (murine, available from Merck Millipore), an anti-GFAP antibody (murine, available from Progen Biotechnik) and an anti-GAPDH antibody (murine, available from Merck Millipore) diluted 500-, 5000- and 10000-fold, respectively, in PBST (−) by the reaction for 1 hour at room temperature. […]
Target proteins were then detected by reaction with the ECL prime Western blotting detection reagent (available from GE Healthcare) using the Luminescent image analyser LAS-3000 (available from Fujifilm Corporation). […]

Row | Sequence | expression of the nestin gene compared to the culture without addition of the peptide [1] | expression of the nestin gene compared to the culture without addition of the peptide [2] | expression of GFAP compared to the culture without addition of the peptide [3] | expression of nestin compared to the culture without addition of the peptide [3] | co-expression of GFAP and nestin [3] | expression of nestin, times higher than the culture without addition of the peptide [3] | expression of GFAP compared to the culture without addition of the peptide ([4]; anti-GFAP antibody) | expression of nestin compared to the culture without addition of the peptide ([4]; anti-nestin antibody, FIG. 2) | co-expression of GFAP and nestin [4] | expression of nestin, times higher than the culture without addition of the peptide [4]
1 | SLQYLCRFVIRQYTRKKRTLRKNDRKKR (SLQYLCRFVIRQYTRKKRTLRKNDRKKR-NH2) [sample 1] | significant increase | significant increase | difference in expression of GFAP was not confirmed | significant increase | co-expressed | ≥ 2 times | difference in expression of GFAP was not confirmed | significant increase | co-expressed | ≥ 2 times
2 | TLHQQCIRVLKNNIDKKRTLRKNDRKKR (TLHQQCIRVLKNNIDKKRTLRKNDRKKR-NH2) [sample 3, reference compound] |  |  | difference in expression of nestin or GFAP was not confirmed | difference in expression of nestin or GFAP was not confirmed |  |  |  |  |  | 
3 | NLQDLCRIKIRQCIGKKRTLRKNDRKKR (NLQDLCRIKIRQCIGKKRTLRKNDRKKR-NH2; cysteine pairing not given here) [sample 2, reference compound] |  |  | difference in expression of nestin or GFAP was not confirmed | difference in expression of nestin or GFAP was not confirmed |  |  |  |  |  | 
